The NIST ThermoML archive (doi:10.1016/j.fluid.2010.02.021)
± gives the expanded uncertainty stated by the source.

Assay: xn = mol fraction of the nth substance listed
Details: 101.3 kPa, Liquid, Falling or rolling sphere viscometry

CCn1cc[n+](C)c1.O=S(=O)([N-]S(=O)(=O)C(F)(F)F)C(F)(F)F + O
viscosity [mPa·s]
Details | x2 = 0 | x2 = 0.1074 | x2 = 0.2228 | x2 = 0.3027
303.15 K | 28.6 ± 0.9 | 23.8 ± 0.7 | 19.4 ± 0.6 | 16.4 ± 0.5
323.15 K | 15.9 ± 0.5 | 13.6 ± 0.4 | 11.4 ± 0.4 | 9.9 ± 0.31
